# Reference: paper PMC10004634 (PLOS ONE, 2023)
# Where two headings read alike, the source gives them in different places.
# Columns and labels:
# Test in all cases: biochemical
# Set-up in all cases: KINOMEscan scanMAX competition binding, DNA-tagged kinases, qPCR read-out, percent control at 300 nM
# ACVR2A = ACVR2A (Homo sapiens, UniProt P27037)
# IRAK3 = target: T1, IRAK3 (Homo sapiens, UniProt Q9Y616)
# T1 sequence (Q9Y616 1-596): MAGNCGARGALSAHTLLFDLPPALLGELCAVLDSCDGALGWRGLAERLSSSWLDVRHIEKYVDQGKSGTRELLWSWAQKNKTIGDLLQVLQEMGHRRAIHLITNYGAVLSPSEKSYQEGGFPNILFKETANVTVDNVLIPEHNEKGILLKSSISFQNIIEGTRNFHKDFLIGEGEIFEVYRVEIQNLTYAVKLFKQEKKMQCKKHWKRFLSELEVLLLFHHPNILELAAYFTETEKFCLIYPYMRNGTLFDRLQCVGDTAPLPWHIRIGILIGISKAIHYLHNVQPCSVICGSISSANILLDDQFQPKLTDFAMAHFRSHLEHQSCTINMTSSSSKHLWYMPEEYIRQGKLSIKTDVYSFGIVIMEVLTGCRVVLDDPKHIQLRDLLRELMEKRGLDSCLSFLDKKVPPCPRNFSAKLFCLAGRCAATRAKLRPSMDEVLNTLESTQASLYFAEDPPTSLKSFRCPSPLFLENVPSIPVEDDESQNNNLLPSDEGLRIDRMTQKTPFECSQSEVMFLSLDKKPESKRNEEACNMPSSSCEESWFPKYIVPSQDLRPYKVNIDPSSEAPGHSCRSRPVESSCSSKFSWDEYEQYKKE
# LIMK1 = LIMK1 (Homo sapiens, UniProt P53667)
# MAP3K1 = MAP3K1 (Homo sapiens, UniProt Q13233)
# MKNK1 = MKNK1 (Homo sapiens, UniProt Q9BUB5)
# PHKG1 = PHKG1 (Homo sapiens, UniProt Q16816)
# PRKX = target: T2, PRKX (Homo sapiens, UniProt P51817)
# T2 sequence (P51817 1-358): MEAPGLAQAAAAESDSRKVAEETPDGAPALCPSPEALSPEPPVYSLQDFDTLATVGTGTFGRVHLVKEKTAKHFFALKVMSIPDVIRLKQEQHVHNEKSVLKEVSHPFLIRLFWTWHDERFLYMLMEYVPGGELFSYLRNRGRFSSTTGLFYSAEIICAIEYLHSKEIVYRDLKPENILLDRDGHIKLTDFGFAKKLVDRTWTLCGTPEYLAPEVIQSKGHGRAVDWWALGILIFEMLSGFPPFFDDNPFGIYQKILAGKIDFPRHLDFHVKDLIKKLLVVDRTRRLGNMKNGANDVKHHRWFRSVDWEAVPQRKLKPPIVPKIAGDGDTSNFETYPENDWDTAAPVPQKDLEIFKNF
# RIOK1 = target: T3, RIOK1 (Homo sapiens, UniProt Q9BRS2)
# T3 sequence (Q9BRS2 1-568): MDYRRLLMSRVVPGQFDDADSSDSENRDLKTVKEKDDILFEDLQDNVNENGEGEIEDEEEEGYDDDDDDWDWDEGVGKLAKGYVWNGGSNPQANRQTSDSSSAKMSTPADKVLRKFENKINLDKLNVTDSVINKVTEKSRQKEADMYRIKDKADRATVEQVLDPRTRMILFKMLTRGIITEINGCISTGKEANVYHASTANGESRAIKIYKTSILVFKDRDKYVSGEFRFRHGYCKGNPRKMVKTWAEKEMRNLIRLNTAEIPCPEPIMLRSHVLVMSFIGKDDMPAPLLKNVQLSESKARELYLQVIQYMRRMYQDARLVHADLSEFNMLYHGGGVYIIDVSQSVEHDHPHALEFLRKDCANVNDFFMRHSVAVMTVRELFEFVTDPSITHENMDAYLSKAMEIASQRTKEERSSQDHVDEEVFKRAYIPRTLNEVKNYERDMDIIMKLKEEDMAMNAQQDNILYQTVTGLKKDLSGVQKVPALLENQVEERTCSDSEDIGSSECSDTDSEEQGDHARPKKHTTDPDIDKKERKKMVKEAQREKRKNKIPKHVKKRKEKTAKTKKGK
# PDGFRA = PDGFRA (Homo sapiens, UniProt P16234)
# PRP4 = target: T4, PRP4 (Homo sapiens, UniProt Q13523)
# T4 construct: gene PRPF4B
# [1] = read-out: Percent control / Acalabrutinib
# [2] = read-out: Percent control / Ibrutinib
# [3] = read-out: Percent control / Tirabrutinib
# [4] = read-out: Percent control / Zanubrutinib
# PHKG1, sequence (Q16816 whole entry): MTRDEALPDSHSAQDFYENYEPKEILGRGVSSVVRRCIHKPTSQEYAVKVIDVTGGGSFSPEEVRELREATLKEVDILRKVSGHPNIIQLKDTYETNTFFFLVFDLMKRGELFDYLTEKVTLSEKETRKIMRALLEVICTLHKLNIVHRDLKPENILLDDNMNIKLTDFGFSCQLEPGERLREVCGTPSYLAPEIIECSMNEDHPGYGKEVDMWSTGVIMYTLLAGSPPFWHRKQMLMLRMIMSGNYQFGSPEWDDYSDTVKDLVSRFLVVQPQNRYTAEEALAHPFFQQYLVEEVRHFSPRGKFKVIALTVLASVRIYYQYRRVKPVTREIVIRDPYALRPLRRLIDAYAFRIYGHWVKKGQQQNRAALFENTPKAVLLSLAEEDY
# T4 sequence (Q13523 whole entry): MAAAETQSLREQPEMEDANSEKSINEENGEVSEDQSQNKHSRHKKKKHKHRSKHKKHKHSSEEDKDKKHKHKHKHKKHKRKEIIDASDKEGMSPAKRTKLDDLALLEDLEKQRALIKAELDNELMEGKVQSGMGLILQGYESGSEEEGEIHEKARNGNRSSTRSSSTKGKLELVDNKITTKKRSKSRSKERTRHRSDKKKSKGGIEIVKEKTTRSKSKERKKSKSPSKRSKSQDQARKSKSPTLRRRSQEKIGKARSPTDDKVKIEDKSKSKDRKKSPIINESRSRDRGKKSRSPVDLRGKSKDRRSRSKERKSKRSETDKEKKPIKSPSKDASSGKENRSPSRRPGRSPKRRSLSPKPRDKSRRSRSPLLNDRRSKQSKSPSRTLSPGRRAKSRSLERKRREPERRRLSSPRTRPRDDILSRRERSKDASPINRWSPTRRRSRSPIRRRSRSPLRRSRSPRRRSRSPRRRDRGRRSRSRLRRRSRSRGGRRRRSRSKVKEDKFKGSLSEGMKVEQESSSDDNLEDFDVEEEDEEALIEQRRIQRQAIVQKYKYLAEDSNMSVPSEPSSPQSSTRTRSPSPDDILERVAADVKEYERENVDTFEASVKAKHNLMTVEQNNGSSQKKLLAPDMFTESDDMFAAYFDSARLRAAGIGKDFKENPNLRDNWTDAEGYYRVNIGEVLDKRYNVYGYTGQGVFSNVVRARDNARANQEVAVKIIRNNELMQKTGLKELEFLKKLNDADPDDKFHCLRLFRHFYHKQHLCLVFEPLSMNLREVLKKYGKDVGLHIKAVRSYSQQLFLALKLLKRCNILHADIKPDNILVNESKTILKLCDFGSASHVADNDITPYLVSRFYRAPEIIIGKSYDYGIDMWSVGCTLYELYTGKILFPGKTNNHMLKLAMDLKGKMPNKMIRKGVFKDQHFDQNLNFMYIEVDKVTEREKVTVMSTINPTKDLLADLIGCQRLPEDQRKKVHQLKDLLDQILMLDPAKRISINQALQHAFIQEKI
# ACVR2A, sequence (P27037 whole entry): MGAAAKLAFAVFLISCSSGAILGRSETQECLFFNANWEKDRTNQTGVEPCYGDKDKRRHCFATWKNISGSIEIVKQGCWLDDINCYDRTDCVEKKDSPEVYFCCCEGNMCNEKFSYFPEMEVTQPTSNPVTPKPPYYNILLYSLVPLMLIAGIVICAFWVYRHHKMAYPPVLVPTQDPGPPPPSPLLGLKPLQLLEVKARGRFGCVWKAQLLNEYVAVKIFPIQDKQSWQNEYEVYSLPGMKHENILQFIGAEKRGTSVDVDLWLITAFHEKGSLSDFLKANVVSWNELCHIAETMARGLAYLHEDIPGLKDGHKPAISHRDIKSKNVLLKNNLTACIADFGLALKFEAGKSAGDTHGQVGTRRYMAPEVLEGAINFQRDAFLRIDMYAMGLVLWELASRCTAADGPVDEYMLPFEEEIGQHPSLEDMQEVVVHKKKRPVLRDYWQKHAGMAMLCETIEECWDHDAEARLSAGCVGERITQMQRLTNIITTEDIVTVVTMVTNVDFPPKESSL
# MAP3K1, sequence (Q13233 whole entry): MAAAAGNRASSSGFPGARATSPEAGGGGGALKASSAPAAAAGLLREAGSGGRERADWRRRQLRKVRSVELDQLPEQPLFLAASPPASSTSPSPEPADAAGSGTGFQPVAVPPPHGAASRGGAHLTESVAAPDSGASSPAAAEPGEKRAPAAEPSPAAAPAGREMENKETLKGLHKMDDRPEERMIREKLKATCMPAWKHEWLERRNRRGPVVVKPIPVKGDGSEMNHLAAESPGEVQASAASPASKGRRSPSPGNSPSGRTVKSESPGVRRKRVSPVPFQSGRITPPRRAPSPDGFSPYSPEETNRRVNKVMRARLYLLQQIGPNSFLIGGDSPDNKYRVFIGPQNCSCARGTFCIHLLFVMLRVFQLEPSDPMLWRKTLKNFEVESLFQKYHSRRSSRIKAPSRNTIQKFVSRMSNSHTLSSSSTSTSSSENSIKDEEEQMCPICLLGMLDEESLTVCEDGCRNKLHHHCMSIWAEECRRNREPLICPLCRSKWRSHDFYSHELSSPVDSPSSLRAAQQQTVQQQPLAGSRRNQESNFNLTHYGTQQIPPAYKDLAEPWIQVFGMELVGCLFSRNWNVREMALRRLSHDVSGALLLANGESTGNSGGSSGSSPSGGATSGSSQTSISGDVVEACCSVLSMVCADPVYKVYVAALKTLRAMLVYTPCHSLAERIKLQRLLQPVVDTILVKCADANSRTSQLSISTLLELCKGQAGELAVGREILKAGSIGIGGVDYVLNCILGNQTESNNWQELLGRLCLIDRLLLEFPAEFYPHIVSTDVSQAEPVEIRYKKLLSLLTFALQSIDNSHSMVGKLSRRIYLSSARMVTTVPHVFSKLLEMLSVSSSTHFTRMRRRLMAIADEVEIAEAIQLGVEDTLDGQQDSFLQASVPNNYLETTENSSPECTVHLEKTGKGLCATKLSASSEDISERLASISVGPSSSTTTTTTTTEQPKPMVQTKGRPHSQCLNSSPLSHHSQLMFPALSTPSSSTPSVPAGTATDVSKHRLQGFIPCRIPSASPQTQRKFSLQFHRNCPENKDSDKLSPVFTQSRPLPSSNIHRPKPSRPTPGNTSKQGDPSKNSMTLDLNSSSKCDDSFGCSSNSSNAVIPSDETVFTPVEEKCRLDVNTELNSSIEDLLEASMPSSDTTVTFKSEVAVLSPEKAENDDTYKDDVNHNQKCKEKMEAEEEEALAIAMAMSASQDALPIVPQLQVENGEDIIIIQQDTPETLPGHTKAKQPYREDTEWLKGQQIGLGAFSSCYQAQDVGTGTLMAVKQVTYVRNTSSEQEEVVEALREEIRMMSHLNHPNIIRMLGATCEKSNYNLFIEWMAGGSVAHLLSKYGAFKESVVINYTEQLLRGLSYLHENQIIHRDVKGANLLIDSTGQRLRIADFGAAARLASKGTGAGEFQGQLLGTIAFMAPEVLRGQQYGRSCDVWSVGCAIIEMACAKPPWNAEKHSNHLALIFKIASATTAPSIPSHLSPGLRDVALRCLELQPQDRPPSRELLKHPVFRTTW
# MKNK1, sequence (Q9BUB5 whole entry): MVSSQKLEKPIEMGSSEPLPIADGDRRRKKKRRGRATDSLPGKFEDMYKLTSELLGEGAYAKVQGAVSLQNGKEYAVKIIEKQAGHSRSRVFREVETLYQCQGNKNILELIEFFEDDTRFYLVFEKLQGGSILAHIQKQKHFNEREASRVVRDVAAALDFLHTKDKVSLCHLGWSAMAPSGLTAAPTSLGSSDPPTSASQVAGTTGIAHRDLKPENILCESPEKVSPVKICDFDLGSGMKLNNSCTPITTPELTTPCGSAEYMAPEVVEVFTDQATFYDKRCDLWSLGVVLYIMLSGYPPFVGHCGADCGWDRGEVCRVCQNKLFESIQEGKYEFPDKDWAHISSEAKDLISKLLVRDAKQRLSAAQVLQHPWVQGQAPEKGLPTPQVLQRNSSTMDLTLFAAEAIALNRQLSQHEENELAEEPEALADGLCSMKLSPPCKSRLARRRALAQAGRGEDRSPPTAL
# LIMK1, sequence (P53667 whole entry): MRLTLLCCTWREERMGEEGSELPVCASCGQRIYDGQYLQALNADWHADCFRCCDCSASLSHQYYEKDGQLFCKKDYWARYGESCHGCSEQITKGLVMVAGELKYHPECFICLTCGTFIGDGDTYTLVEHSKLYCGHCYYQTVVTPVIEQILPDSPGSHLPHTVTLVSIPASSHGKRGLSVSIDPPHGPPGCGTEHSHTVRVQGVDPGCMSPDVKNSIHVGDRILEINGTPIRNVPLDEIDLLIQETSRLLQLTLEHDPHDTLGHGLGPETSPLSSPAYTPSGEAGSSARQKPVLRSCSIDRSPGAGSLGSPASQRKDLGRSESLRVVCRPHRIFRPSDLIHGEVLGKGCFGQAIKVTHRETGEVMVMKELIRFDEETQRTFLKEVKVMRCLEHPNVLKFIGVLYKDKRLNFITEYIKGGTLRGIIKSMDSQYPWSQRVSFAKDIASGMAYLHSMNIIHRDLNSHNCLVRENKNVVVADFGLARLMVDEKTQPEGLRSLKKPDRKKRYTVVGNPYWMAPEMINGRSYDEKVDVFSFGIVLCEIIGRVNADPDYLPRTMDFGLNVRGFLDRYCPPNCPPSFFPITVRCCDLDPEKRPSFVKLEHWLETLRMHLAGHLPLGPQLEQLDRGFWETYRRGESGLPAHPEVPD
compound,measurement,setting,value
CC#CC(=O)N1CCC[C@H]1c1nc(-c2ccc(C(=O)Nc3ccccn3)cc2)c2c(N)nccn12 [Acalabrutinib],remaining binding at 0.3 µM,ACVR2A; [1],80%
same,remaining binding at 0.3 µM,IRAK3; [1],86%
same,remaining binding at 0.3 µM,LIMK1; [1],47%
same,remaining binding at 0.3 µM,MAP3K1; [1],96%
same,remaining binding at 0.3 µM,MKNK1; [1],84%
same,remaining binding at 0.3 µM,PHKG1; [1],92%
same,remaining binding at 0.3 µM,PRKX; [1],81%
same,remaining binding at 0.3 µM,RIOK1; [1],72%
C=CC(=O)N1CCC[C@@H](n2nc(-c3ccc(Oc4ccccc4)cc3)c3c(N)ncnc32)C1 [Ibrutinib],remaining binding at 0.3 µM,ACVR2A; [2],86%
same,remaining binding at 0.3 µM,IRAK3; [2],86%
same,remaining binding at 0.3 µM,LIMK1; [2],57%
same,remaining binding at 0.3 µM,MAP3K1; [2],86%
same,remaining binding at 0.3 µM,MKNK1; [2],89%
same,remaining binding at 0.3 µM,PDGFRA; [2],96%
same,remaining binding at 0.3 µM,PRKX; [2],75%
same,remaining binding at 0.3 µM,PRP4; [2],96%
same,remaining binding at 0.3 µM,RIOK1; [2],51%
CC#CC(=O)N1CC[C@@H](n2c(=O)n(-c3ccc(Oc4ccccc4)cc3)c3c(N)ncnc32)C1 [Tirabrutinib],remaining binding at 0.3 µM,IRAK3; [3],80%
same,remaining binding at 0.3 µM,MKNK1; [3],87%
same,remaining binding at 0.3 µM,PDGFRA; [3],95%
same,remaining binding at 0.3 µM,PHKG1; [3],83%
same,remaining binding at 0.3 µM,PRKX; [3],87%
same,remaining binding at 0.3 µM,PRP4; [3],99%
same,remaining binding at 0.3 µM,RIOK1; [3],79%
C=CC(=O)N1CCC([C@@H]2CCNc3c(C(N)=O)c(-c4ccc(Oc5ccccc5)cc4)nn32)CC1 [Zanubrutinib],remaining binding at 0.3 µM,ACVR2A; [4],100%
same,remaining binding at 0.3 µM,IRAK3; [4],91%
same,remaining binding at 0.3 µM,LIMK1; [4],100%
same,remaining binding at 0.3 µM,MAP3K1; [4],84%
same,remaining binding at 0.3 µM,MKNK1; [4],100%
same,remaining binding at 0.3 µM,PDGFRA; [4],100%
same,remaining binding at 0.3 µM,PHKG1; [4],67%
same,remaining binding at 0.3 µM,PRKX; [4],96%
same,remaining binding at 0.3 µM,PRP4; [4],100%
same,remaining binding at 0.3 µM,RIOK1; [4],75%
